Test results as given in the supplement of paper PMC11451515.

Tested on: SEM cells
Test: cell viability relative to DMSO control; higher = less cytotoxic
Details: 48 h
Method in brief: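 Viability is a per-plate percentage relative to DMSO wells, with cell-free wells as background. CellTiter-Glo One luminescence was read after 48 h at 37°C on 1536-well plates (5 μl) of NOMO1 or SEM (500 cells/well) or P12-Ichikawa (1000 cells/well) leukemia cells. The cells had been adapted for at least four passages in each medium and pin-dosed with library compounds in DMSO from 47 μM to 0.79 nM in 11 threefold steps.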

[1] = HPLM + 10% dialyzed FBS, 0.000781 µM
[2] = HPLM + 10% dialyzed FBS, 0.00234 µM
[3] = HPLM + 10% dialyzed FBS, 0.00702 µM
[4] = HPLM + 10% dialyzed FBS, 0.0211 µM
[5] = HPLM + 10% dialyzed FBS, 0.0632 µM
[6] = HPLM + 10% dialyzed FBS, 0.19 µM
[7] = HPLM + 10% dialyzed FBS, 0.569 µM
[8] = HPLM + 10% dialyzed FBS, 1.71 µM
[9] = HPLM + 10% dialyzed FBS, 5.12 µM
[10] = HPLM + 10% dialyzed FBS, 15.4 µM
[11] = HPLM + 10% dialyzed FBS, 46.1 µM
[12] = RPMI 5 mM glucose + 10% FBS, 0.000781 µM
[13] = RPMI 5 mM glucose + 10% FBS, 0.00234 µM
[14] = RPMI 5 mM glucose + 10% FBS, 0.00702 µM
[15] = RPMI 5 mM glucose + 10% FBS, 0.0211 µM
[16] = RPMI 5 mM glucose + 10% FBS, 0.0632 µM
[17] = RPMI 5 mM glucose + 10% FBS, 0.19 µM
[18] = RPMI 5 mM glucose + 10% FBS, 0.569 µM
[19] = RPMI 5 mM glucose + 10% FBS, 1.71 µM
[20] = RPMI 5 mM glucose + 10% FBS, 5.12 µM
[21] = RPMI 5 mM glucose + 10% FBS, 15.4 µM
[22] = RPMI 5 mM glucose + 10% FBS, 46.1 µM
[23] = RPMI 5 mM glucose + 10% dialyzed FBS, 0.000781 µM
[24] = RPMI 5 mM glucose + 10% dialyzed FBS, 0.00234 µM
[25] = RPMI 5 mM glucose + 10% dialyzed FBS, 0.00702 µM
[26] = RPMI 5 mM glucose + 10% dialyzed FBS, 0.0211 µM
[27] = RPMI 5 mM glucose + 10% dialyzed FBS, 0.0632 µM
[28] = RPMI 5 mM glucose + 10% dialyzed FBS, 0.19 µM
[29] = RPMI 5 mM glucose + 10% dialyzed FBS, 0.569 µM
[30] = RPMI 5 mM glucose + 10% dialyzed FBS, 1.71 µM
[31] = RPMI 5 mM glucose + 10% dialyzed FBS, 5.12 µM
[32] = RPMI 5 mM glucose + 10% dialyzed FBS, 15.4 µM
[33] = RPMI 5 mM glucose + 10% dialyzed FBS, 46.1 µM

Structure (SMILES)	cell viability [1]	cell viability [2]	cell viability [3]	cell viability [4]	cell viability [5]	cell viability [6]	cell viability [7]	cell viability [8]	cell viability [9]	cell viability [10]	cell viability [11]	cell viability [12]	cell viability [13]	cell viability [14]	cell viability [15]	cell viability [16]	cell viability [17]	cell viability [18]	cell viability [19]	cell viability [20]	cell viability [21]	cell viability [22]	cell viability [23]	cell viability [24]	cell viability [25]	cell viability [26]	cell viability [27]	cell viability [28]	cell viability [29]	cell viability [30]	cell viability [31]	cell viability [32]	cell viability [33]
CNc1nc(-c2ccc3c(N)n[nH]c3c2)cc(N2C[C@@H](C(=O)NC3CCCCC3)CC[C@H]2C)n1	72.6%	90%	83.9%	81.1%	83.1%	84.7%	59.8%	57.3%	60.3%	48.5%	14.3%	89.8%	85.9%	102%	108%	88.8%	113%	82.1%	78.8%	71.5%	47.9%	2.66%	80.6%	90.7%	76.8%	76.1%	79.4%	83.1%	71.2%	57.9%	63.1%	50.7%	10.9%
C=CC(=O)Nc1cccc(Sc2nc(Nc3ccc(N4CCN(C)CC4)cc3)ncc2Cl)c1	91.4%	105%	113%	116%	114%	116%	104%	86.4%	71.1%	86%	3.8%	53.5%	68.7%	81.6%	69.1%	82.7%	81.2%	91.7%	60.6%	41.3%	65.9%	2.06%	88.8%	98.2%	97.6%	99.9%	118%	114%	72.9%	80.9%	57.3%	58.5%	2.75%
C=CC(=O)Nc1cc2c(Nc3ccc(F)c(Cl)c3)ncnc2cc1C#CC(C)(C)N1CCN(C)CC1	99.3%	107%	108%	114%	106%	104%	92.3%	87.1%	17.3%	4.78%	2.96%	112%	116%	112%	118%	105%	138%	103%	87.7%	22.2%	4.92%	4.19%	102%	104%	95.8%	97%	102%	106%	107%	87.7%	19.3%	4.98%	3.49%
Cc1ccc(C(=O)Nc2cccc(C(F)(F)F)c2)cc1Nc1nc(-c2cccnc2)nc2c1cnn2C	38.9%	83.8%	89.1%	87.7%	78.7%	95.3%	90.5%	75.3%	83.9%	59%	53.4%	58.7%	103%	104%	102%	85.7%	101%	83%	83%	98.4%	56.8%	60.6%	31%	92.1%	109%	83.8%	82.8%	97.7%	92.1%	81.1%	113%	68.5%	62.1%
CC1(C)CC\C2=C(/O1)C3=C(C=CC=C3)C(=O)C2=O	103%	117%	86.2%	112%	113%	110%	98.8%	94.7%	95%	78.9%	4.79%	127%	115%	94.1%	124%	129%	117%	117%	102%	108%	76.3%	3.64%	105%	121%	95.4%	102%	114%	119%	100%	84.5%	72.9%	55.8%	2.69%
CCC(CCCC)COC(=O)C(\C#N)=C(\c1ccccc1)c2ccccc2 (configuration not stated)	91.6%	55.3%	90.3%	89.3%	98.8%	93.9%	95.9%	90.6%	110%	99.6%	86.3%	79.8%	44%	99%	86.1%	94.1%	96.6%	96.2%	97.8%	95.6%	91.6%	88.9%	88.3%	46.3%	103%	99.7%	99.9%	90.3%	107%	86%	91.5%	106%	107%
CO[C@@H](C(=O)N1Cc2[nH]nc(NC(=O)c3ccc(N4CCN(C)CC4)cc3)c2C1)c1ccccc1	95.5%	84.2%	103%	90.9%	71.1%	55.6%	38.4%	24.6%	28.3%	24.3%	24.9%	107%	92.3%	103%	94.6%	59.3%	38.9%	23.5%	20.5%	19.7%	15%	18.7%	87.9%	97.1%	87.4%	90.7%	59.8%	39.5%	32.2%	20.2%	25.1%	20%	16.4%
CO[C@H]1CCC(O[C@H]2C[C@H]([C@]3(C)CC[C@]4(C[C@H](O)[C@@H](C)[C@@H]([C@@H](C)/C=C(\C)C(=O)[C@H](C)C[C@H](C)C(=O)[O-])O4)O3)O[C@]3(O[C@@H]([C@H]4O[C@@](O)(CO)[C@H](C)C[C@@H]4C)C[C@@H]3C)[C@@H]2C)O[C@@H]1C (some centres not stated)												121%	119%	112%	108%	117%	128%	98.3%	66.6%	29.8%	18.7%	14.3%											
